Data published in the NIST ThermoML archive (doi:10.1016/j.fluid.2008.08.001).
± gives the expanded uncertainty stated by the source.

What was measured:
[1] = for vapor or sublimation pressure: Liquid
[2] = refractive index (Na D-line) (dimensionless); settings: 298.1 K; 101.33 kPa; Liquid; Standard Abbe refractometry

Row | vapor or sublimation pressure ([1]; 468.96 K) [kPa] | vapor or sublimation pressure ([1]; 473.96 K) [kPa] | vapor or sublimation pressure ([1]; 478.65 K) [kPa] | vapor or sublimation pressure ([1]; 485.91 K) [kPa] | vapor or sublimation pressure ([1]; 488.5 K) [kPa] | vapor or sublimation pressure ([1]; 490.22 K) [kPa] | vapor or sublimation pressure ([1]; 496.8 K) [kPa] | vapor or sublimation pressure ([1]; 500.18 K) [kPa] | vapor or sublimation pressure ([1]; 505.08 K) [kPa] | vapor or sublimation pressure ([1]; 510.7 K) [kPa] | vapor or sublimation pressure ([1]; 519.03 K) [kPa] | vapor or sublimation pressure ([1]; 525.3 K) [kPa] | vapor or sublimation pressure ([1]; 532.77 K) [kPa] | refractive index [2] | Normal melting temperature ([1]; Crystal, visual observation) [°C] | SMILES
1 | 0.666 ± 0.044 | 0.818 ± 0.05 | 1.036 ± 0.059 | 1.457 ± 0.078 | 1.515 ± 0.081 | 1.762 ± 0.093 | 2.286 ± 0.12 | 2.647 ± 0.14 | 3.149 ± 0.16 | 4.078 ± 0.21 | 5.29 ± 0.27 | 7.044 ± 0.35 | 9.161 ± 0.46 | 1.442 ± 0.0007 | – | CCCCOC(=O)CCCCCCCCC(=O)OCCCC [dibutyl decanedioate]
2 | – | – | – | – | – | – | – | – | – | – | – | – | – | – | 52.5 ± 0.5 | O=C1C=CC(=O)O1 [maleic anhydride]
